Earlier results as cited in US20260115234A1, “PRODUCTION & SECRETION OF AUXIN-LIKE MOLECULES IN BACTERIA” (SNIPR Biome ApS, priority 2023, published 2026).
≈ marks a conversion by molar mass, not a printed value.

Legend:
[1] = test system: HIV replication in infected H9 lymphocytes
[2] = test system: A549 human lung cancer cells
[3] = test system: MCF-7 human breast cancer cells
[4] = test system: RFP reporter in strain TG1; details: relative fluorescence of plasmids in strain TG1 grown in LB media to saturation

Question: Which results are given for `O=C(O)c1c[nH]c2ccccc12` [ICA, indole-3-carboxylic acid]?
Answer: IC50 inhibition of HIV replication [1]: 16.4 µg/mL; EC50 cytotoxicity [2]: 4.6 µg/mL (≈ 28.5 µM); EC50 cytotoxicity [3]: 12.9 µg/mL (≈ 80 µM)

Question: Which “Measured Strength (Anderson Score)” value [4] does the source give for “BBa_J23100: Anderson Promoter Collection constitutive promoter, Seq ID No: 5 (DNA TTGACGGCTAGCTCAGTCCTAGGTACAGTGCTAGC; expressed or natural sequence)” here?
Answer: 1

Question: With “BBa_J23101: Anderson Promoter Collection promoter, Seq ID No: 6 (DNA TTTACAGCTAGCTCAGTCCTAGGTATTATGCTAGC; expressed or natural sequence)” as the compound, how does the “Measured Strength (Anderson Score)” value [4] read?
Answer: 0.7

Question: For “BBa_J23102: Anderson Promoter Collection promoter, Seq ID No: 7 (DNA TTGACAGCTAGCTCAGTCCTAGGTACTGTGCTAGC; expressed or natural sequence)”, which “Measured Strength (Anderson Score)” value [4] is on record?
Answer: 0.86

Question: With “BBa_J23103: Anderson Promoter Collection promoter, Seq ID No: 8 (DNA CTGATAGCTAGCTCAGTCCTAGGGATTATGCTAGC; expressed or natural sequence)” as the compound, how does the “Measured Strength (Anderson Score)” value [4] read?
Answer: 0.01

Question: For “BBa_J23104: Anderson Promoter Collection promoter, Seq ID No: 9 (DNA TTGACAGCTAGCTCAGTCCTAGGTATTGTGCTAGC; expressed or natural sequence)”, which “Measured Strength (Anderson Score)” value [4] is on record?
Answer: 0.72

Question: For “BBa_J23105: Anderson Promoter Collection promoter, Seq ID No: 10 (DNA TTTACGGCTAGCTCAGTCCTAGGTACTATGCTAGC; expressed or natural sequence)”, which “Measured Strength (Anderson Score)” value [4] is on record?
Answer: 0.24

Question: Which “Measured Strength (Anderson Score)” value [4] does the source give for “BBa_J23106: Anderson Promoter Collection promoter, Seq ID No: 11 (DNA TTTACGGCTAGCTCAGTCCTAGGTATAGTGCTAGC; expressed or natural sequence)” here?
Answer: 0.47

Question: Which “Measured Strength (Anderson Score)” value [4] does the source give for “BBa_J23107: Anderson Promoter Collection promoter, Seq ID No: 12 (DNA TTTACGGCTAGCTCAGCCCTAGGTATTATGCTAGC; expressed or natural sequence)” here?
Answer: 0.36

Question: With “BBa_J23108: Anderson Promoter Collection promoter, Seq ID No: 13 (DNA CTGACAGCTAGCTCAGTCCTAGGTATAATGCTAGC; expressed or natural sequence)” as the compound, how does the “Measured Strength (Anderson Score)” value [4] read?
Answer: 0.51

Question: For “BBa_J23109: Anderson Promoter Collection promoter, Seq ID No: 14 (DNA TTTACAGCTAGCTCAGTCCTAGGGACTGTGCTAGC; expressed or natural sequence)”, which “Measured Strength (Anderson Score)” value [4] is on record?
Answer: 0.04

Question: Which “Measured Strength (Anderson Score)” value [4] does the source give for “BBa_J23110: Anderson Promoter Collection promoter, Seq ID No: 15 (DNA TTTACGGCTAGCTCAGTCCTAGGTACAATGCTAGC; expressed or natural sequence)” here?
Answer: 0.33

Question: With “BBa_J23111: Anderson Promoter Collection promoter, Seq ID No: 16 (DNA TTGACGGCTAGCTCAGTCCTAGGTATAGTGCTAGC; expressed or natural sequence)” as the compound, how does the “Measured Strength (Anderson Score)” value [4] read?
Answer: 0.58

Question: Which “Measured Strength (Anderson Score)” value [4] does the source give for “BBa_J23112: Anderson Promoter Collection promoter, Seq ID No: 17 (DNA CTGATAGCTAGCTCAGTCCTAGGGATTATGCTAGC; expressed or natural sequence)” here?
Answer: 0

Question: Which “Measured Strength (Anderson Score)” value [4] does the source give for “BBa_J23113: Anderson Promoter Collection promoter, Seq ID No: 18 (DNA CTGATGGCTAGCTCAGTCCTAGGGATTATGCTAGC; expressed or natural sequence)” here?
Answer: 0.01

Question: With “BBa_J23114: Anderson Promoter Collection promoter, Seq ID No: 19 (DNA TTTATGGCTAGCTCAGTCCTAGGTACAATGCTAGC; expressed or natural sequence)” as the compound, how does the “Measured Strength (Anderson Score)” value [4] read?
Answer: 0.1

Question: Which “Measured Strength (Anderson Score)” value [4] does the source give for “BBa_J23115: Anderson Promoter Collection promoter, Seq ID No: 20 (DNA TTTATAGCTAGCTCAGCCCTTGGTACAATGCTAGC; expressed or natural sequence)” here?
Answer: 0.15

Question: With “BBa_J23116: Anderson Promoter Collection promoter, Seq ID No: 21 (DNA TTGACAGCTAGCTCAGTCCTAGGGACTATGCTAGC; expressed or natural sequence)” as the compound, how does the “Measured Strength (Anderson Score)” value [4] read?
Answer: 0.16

Question: For “BBa_J23117: Anderson Promoter Collection promoter, Seq ID No: 22 (DNA TTGACAGCTAGCTCAGTCCTAGGGATTGTGCTAGC; expressed or natural sequence)”, which “Measured Strength (Anderson Score)” value [4] is on record?
Answer: 0.06

Question: Which “Measured Strength (Anderson Score)” value [4] does the source give for “BBa_J23118: Anderson Promoter Collection promoter, Seq ID No: 23 (DNA TTGACGGCTAGCTCAGTCCTAGGTATTGTGCTAGC; expressed or natural sequence)” here?
Answer: 0.56
